One block for each molecule: values may come before it.
Columns and labels:
[1] = system: T.b.r. strain STIB900; experiment: STIB900 acute mouse model for African trypanosomiasis; type: in vivo
[2] = system: Poly(d(A-T))2; experiment: DNA thermal melting; type: binding; details: from ΔTm values; for Reduction in DNA affinity: compared within the bis-guanidine series
[3] = system: Trypanosoma brucei rhodesiense (T.b.r.) strain STIB900; type: cell-based; details: RHODESIENSE|STIB900, read-out: T.b.r. IC50

SMILES: N=C(N)Nc1ccc(-c2ccc(-c3ccc(NC(=N)N)cc3)cc2)cc1 [6a, 4,4″-Bis-guanidino-[1,1′;4′,1″]terphenyl]
Cures (mice that survived 60 days and are parasite-free) ([1]; 20 mg/kg ip for 4 days): none gave cures | Reduction of DNA affinity from that of the corresponding diamidine V [2]: about 20%

SMILES: N=C(N)Nc1ccc(-c2ccc(-c3ccc(NC(=N)N)cn3)cc2)nc1 [6b, 1,4-Bis-[5′-guanidinopyridin-2′-yl]phenylene]
Reduction in DNA affinity [2]: approximately one third

SMILES: CCOC(=O)/N=C(\N)Nc1ccc(-c2ccc(-c3ccc(N/C(N)=N/C(=O)OCC)cc3)cc2)cc1 [8a, 4,4″-Bis(N′-ethoxycarbonyl)-guanidino-[1,1′;4′,1″]terphenyl]
Cures (mice that survived 60 days and are parasite-free) ([1]; 25 mg/kg po for 4 days): no cures were achieved

SMILES: CCOC(=O)/N=C(\NC)Nc1ccc(-c2ccc(-c3ccc(N/C(=N/C(=O)OCC)NC)cc3)cc2)cc1 [8c, 4,4″-Bis(N′-ethoxycarbonyl-N″-methyl)-guanidino-[1,1′;4′,1″]terphenyl]
Cures (mice that survived 60 days and are parasite-free) ([1]; 25 mg/kg po for 4 days): no cures were achieved

SMILES: CNC(=N)Nc1ccc(-c2ccc(-c3ccc(NC(=N)NC)cc3)cc2)cc1 [9c, 4,4″-Bis(N′-methyl)-guanidino-[1,1′;4′,1″]terphenyl]
Cures (mice that survived 60 days and are parasite-free) ([1]; 20 mg/kg ip for 4 days): none gave cures

SMILES: CNC(=N)Nc1ccc(-c2ccc(-c3ccc(NC(=N)NC)cn3)cc2)nc1 [9d, 1,4-Bis-[5′-(N′-methylguanidino)-pyridin-2′-yl]-phenylene]
Acute toxicity in treated mice ([1]; 20 mg/kg ip): showed acute toxicity | Cures (mice that survived 60 days and are parasite-free) ([1]; 20 mg/kg ip for 4 days): none gave cures

SMILES: CC(C)NC(=N)Nc1ccc(-c2ccc(-c3ccc(NC(=N)NC(C)C)cc3)cc2)cc1 [9e, 4,4″-Bis(N′-isopropyl)-guanidino-[1,1′;4′,1″]terphenyl]
Reduction in DNA affinity [2]: approximately one third

IC50 [3]: 5 nM
SMILES: N=C(N)c1ccc(-c2ccc(-c3ccc(C(=N)N)cc3)cc2)cc1 [V]

— PMC3815585 (European journal of medicinal chemistry, 2008)
